Patent US5141627A, “Chelators whose affinity for calcium ion is increased by illumination” (The Regents of the University of California, priority 1989, dated 1992)
Several values for one entry are separate records, joined by “and”; a condition that tells them apart may be missing. Identical values can stand only once. Like-named read-outs stand apart in the source and are kept apart here. One block for each compound: values may come before it.

What was measured:
[1] = Mg.EGTA incl. monoprotonated form, pH 7.60, 0.1M ionic strength; assumed; read-out: apparent dissociation constant for Mg complex; cited from earlier work
[2] = acid-base indicator; cited from earlier work
[3] = Ca2+ affinity by UV spectra during titration of EGTA or HEEDTA buffers; format: binding; conditions: after photolysis; Hill plot / equilibrium measurements; read-out: Kd (Ca2+) / affinity after photolysis
Protocol: The titration was done at 22° C. with 10 mL of 100 mM KCl, 10 mM K-MOPS, 10 mM K2 H.HEEDTA, and 14 […] diazo-2 as starting materials, adjusting the pH to 7.24, recording the spectrum, and then discarding 1.0 mL of this solution and replacing with 1.0 mL of 100 mM KCl, 10 mM K.MOPS, 10 mM KCa.HEEDTA, 14 μM diazo-2, readjusting the pH to 7.24, and recording the spectra, which was then in 9 mM K2H.HEEDTA. Subsequent iterations to reach n mM KCa.HEEDTA, (10-n) mM HEEDTA, n=2-10, were done by discarding 10.0/(11-n) mL and replacing with equal volumes of the 10mM KCa.HEEDTA, 14 μM diazo-2 stock. After n=10 had been reached to give free Ca^2+ between 10^-5 and 10^-4 M, addition of 1 mM CaCl2 had no further effect on the spectrum. For clarity only six spectra are including in the figure, n=0, 2, 4, 6, 8, and 10. Each spectrum is labeled with the calculated free [Ca^2+ ] imposed by the HEEDTA buffer, assuming a log effective stability constant of 5.55 at pH 7.24.
The phenylacetate was produced by irradiating a 30 μM solution of diazo-2 in 100 mM KCl, 10 mM Tris.HCl, 10 mM K2 H.HEEDTA, pH 8.40, with Spectroline lamp at 365 nm to completion. The titration was then performed as in A but the pH was maintained at 8.40, at which the calculated log effective stability is constant for HEEDTA was 6.60.
Ca^2+ -binding constants for chelators before and after photolysis were determined by monitoring UV spectra during titration of EGTA or HEEDTA buffers to varying free Ca^2+ levels.
Either the ratio of, for example, [Ca.EGTA] to free [EGTA] was adjusted at a constant pH, or the pH was varied while [Ca.EGTA]=[EGTA]. These two approaches gave equivalent answers for pH>7 whenever directly tested, because of the pH insensitivity of BAPTA-like ligands (see FIG. 1 legend for more details). The apparent dissociation constants of Ca.EGTA and Ca.HEEDTA were calculated as described by R. Y. Tsien (1980); see also R. Y. Tsien, et al. (1986), S. R. Adams, et al. (1980), Grynkiewicz, et al., (1985), and Jackson, et al. (1987).

[4] = Ca2+ binding kinetics of photolyzed diazo-2 by competition with HEEDTA after flash photolysis
Source text: Having determined the rate at which the high-affinity chelator was photochemically generated from diazo-2, the kinetics of Ca^2+ binding by the photolysis of diazo-2 was examined relying on the 1:1 competition between protons and Ca^2+ for the chelator HEEDTA, i.e.:
If diazo-2 is photolyzed in the presence of HEEDTA partially saturated with Ca^2+, the photo-generated Compound 3c would take some Ca^2+ away from HEEDTA. The newly freed HEEDTA would then take up some protons and lead to an alkalinization of the sample. The shift in Ca^2+ -binding equilibrium is thus visualized with an indicator like cresol red. Control experiments indicate that at HEEDTA buffer concentrations ≥2 mM, the intrinsic kinetics of the Ca^2+ -HEEDTA equilibrium was no longer limiting the speed of the final alkalinization.
It is noted that the solution first acidified owing to the formation and dissociation of the product carboxylic acid, but subsequently began realkalinizing as the newly formed product chelator competed with HEEDTA for Ca^2+. The time constant of the realkalinization was 2.8 ms (Table I). […]
FIG. 2B is a flash photolysis record of the kinetics of Ca^2+ uptake by photolyzed diazo-2. […] Monitoring the light transmission at 572 nm was performed as for A. Each small division of the ordinate corresponds to 3.4×10^-4 absorbance unit. […] As the photolyzed diazo-20 took Ca^2+ away from HEEDTA, the freed HEEDTA bound protons and thus alkalinized the solution, a process reflected by the increase in cresol red absorbance (i.e., decline in light transmission at 572 nm).
Kinetics of the conversion of diazo-2 and diazo-3 to the carboxylic acid products and the kinetics of Ca^2+ binding by photolyzed diazo-2 were measured by flash photolysis and pH monitoring. […]

[5] = cited from earlier work
[6] = test system: cells; conditions: photolyzed in cells; cited from earlier work

Structure (SMILES): O=C(O)CN(CCOCCOCCN(CC(=O)O)CC(=O)O)CC(=O)O [EGTA, ethylenebis(oxyethylenenitrilo)tetraacetic acid]
- Kd [1]: 6000 µM

Structure (SMILES): Cc1cc(C2(c3ccc(O)c(C)c3)OS(=O)(=O)c3ccccc32)ccc1O [Cresol red]
- pKa [2]: 8.2

- Kd [3]: ~0.073 µM and 0.073 µM
- time constant of realkalinization ([4]; 70 μM diazo-2, 2 mM HEEDTA half-saturated with Ca2+, free [Ca2+] 377 nM): 2.8 ms
- koff, unimolecular rate constant for dissociation of Ca2+ complex ([4]; photolyzed diazo-2): 58 s⁻¹
- kon, bimolecular rate constant for binding of Ca2+ ([4]; photolyzed diazo-2): 8e+08 M⁻¹ s⁻¹
Structure (SMILES): Cc1ccc(N(CC(=O)O)CC(=O)O)c(OCCOc2cc(CC(=O)O)ccc2N(CC(=O)O)CC(=O)O)c1 [Compound 3c]

Structure (SMILES): Cc1ccc(N(CC(=O)O)CC(=O)O)c(OCCOc2cc(-c3c4cc(Cl)c(=O)cc-4oc4cc(O)c(Cl)cc34)ccc2N(CC(=O)O)CC(=O)O)c1 [Fluo-3]
- enhancement of fluorescence quantum yield by Ca2+ binding ([5]; Ca2+ binding): about 40 fold
- Kd ([5]; read-out: Kd (Ca2+) of fluorescent indicator): 0.4 µM

Structure (SMILES): Cc1ccc(N(CC(=O)O)CC(=O)O)c(OCCOc2cc(C(O)c3cc4c(cc3[N+](=O)[O-])OCO4)ccc2N(CC(=O)O)CC(=O)O)c1 (stereo not drawn) [nitr-5]
- irradiation damage on photolysis in cells (in words) [6]: without noticeable irradiation damage
